Results on 1 substance are retold here after patent US11390661B2, “HCMV entry inhibitors” (priority 2016, dated 2022).

For assay [1], the system named is TB40-BACKL7-UL32EGFP-UL100mCherry. Briefly: Adsorption and penetration of dual fluorescent HCMV particles on HECs. It is filed as cell-based, Human cytomegalovirus. Conditions: 100 ng/ml. The method, then: To distinguish between adsorption and penetration of viral particles the inventors made use of dual fluorescent HCMV TB40-BACKL7-UL32EGFP-UL100mCherry (Sampaio 2013). HFFs and HECs were seeded at a density of 40,000 cells per well on gelatin-coated MIDI plates. Overnight produced cell-free infectious supernatant of the fluorescent virus was pre-incubated with PDGFR-Fcs for 2 h at 37° C. Before addition of the mixture the cells were pre-incubated with MEM for 30 min. […] After fixation with acetone, the EGFP signal of pUL32-EGFP was enhanced using mouse-anti-GFP (clone 3E6, Invitrogen) and Alexa488-anti-mouse (Life Technologies). DAPI (4′,6-diamidino-2-phenylindole) was added to mark the cell nuclei. The number of mCherry and EGFP positive particles which are enveloped was compared to the number of particles which were only green per cell. These […] particles have lost their UL100mCherry containing envelope, presumably by fusion with cellular membranes.
To further investigate, which of the initial steps of infection are blocked, the inventors performed a series of experiments that allowed discriminating between adsorption and penetration. They used the dual fluorescent virus TB40-BACKL7-UL32EGFP-UL100mCherry (Sampaio 2013) as it allows to discriminate between enveloped (EGFP-positive and mCherry positive) and non-enveloped particles (only EGFP positive). […]

Another assay has as its system HCMV. Briefly: Neutralization of cell-free HCMV particles / inhibition of HCMV entry in cell culture. It is filed as cell-based, Human cytomegalovirus. The method, then: Infectious cell free HCMV preparations (corresponding to a multiplicity of infection of 1) are pre-incubated with the substance (at variable concentrations) for 2 h at 37° C. The pre-incubated mixture of HCMV and substance is added to cell cultures of choice, including at least a culture of human primary fibroblasts and a culture of human endothelial cells. Cells are incubated with the mixture for 2 h at 37° C. The mixture of HCMV and substance is then replaced with the appropriate cell culture medium and cells are further incubated for at least 16 h at 37° C. HCMV infection of the cells is detected by immunostaining of HCMV immediate early antigens (pUL122/123) with indirect immunofluorescence. The ratio of HCMV-IE antigen-positive cells per total cells is calculated as a readout for the efficiency of viral entry.

For another assay, the system named is HCMV TB40E. Description: Post adsorption inhibition on HFFs with or without PEG fusion. It is filed as cell-based, Human cytomegalovirus. The method, then:
For the analysis of post adsorption inhibition, HFFs were seeded at a density of 40,000 per well on IBIDI plates and incubated for 1 day before infection. Infectious supernatants of TB40E which were produced within 24 hours were cleared by centrifugation. Two identical plates were treated as follows: Cells and virus dilutions were precooled on ice for 15 min before attachment of the virus was allowed on ice for 1 h. The virus containing medium was exchanged by pre-cooled MEM with or without 200 ng/ml PDGFR-alpha-Fc. After 2 h incubation of the inhibitor with the cells on ice, one plate was directly shifted to 37° C., whereas the other cells were treated with pre-warmed 50% PEG (Roche) for 30 sec. The PEG was washed off by five times washing with pre-warmed PBS. Supplied with pre-warmed MEM containing again 200 ng/ml PDGFR-alpha-Fc, the cells were then incubated at 37° C. After 2 h incubation the medium was exchanged on PEG-treated and untreated cells and infection was allowed to proceed for 24 h before infection efficiencies were assessed by immediate early staining. Efficient PEG fusion was controlled visually by detection of syncytia.
HCMV virus particles were adsorbed to HFFs for 1 h on ice. The virus containing medium was then exchanged by medium containing PDGFR-alpha-Fc at a concentration of 200 ng/ml. […]

Another assay has as its system UL74stop virus. Briefly: Inhibition assay with UL74stop virus. In kind it is cell-based, Human cytomegalovirus. The method, then: To further investigate this, inhibition assays were performed with the UL74stop virus (FIG. 8B). As deletion of pUL74 from the virus has a severe effect on infectivity, virions had to be 50 fold concentrated for the experiment, whereas wild type virus had to be diluted to achieve similar infection rates.
FIG. 8: pUL74 is the viral interaction partner of PDGFR-alpha-Fc. Virus preparations of strain TB40-BAC4 or TB40-BAC4UL74stop were pretreated for 2 h with PDGFR-alpha-Fc. A: HFFs were fixed after 90 min of incubation with the virus-inhibitor mixture followed by staining for the viral structural protein pUL32 (red) and for Fc (green). B: Wild type or pUL74stop virus preparations were pre-incubated for 2 h with PDGFR-alpha-Fc before infection of HFFs or HECs was allowed. Wild type or UL74stop virus preparations were diluted or concentrated respectively to obtain similar infection rates. Infection rates were determined by calculation of the number of immediate early positive nuclei over total DAPI stained nuclei per image. Out of three independent experiments one is shown.

For a further assay, the system named is HSV-1 strain F. Briefly: Inhibition of HSV infection (specificity control). Conditions: data not shown. It is filed as cell-based. The method, then: Infection efficiencies were determined by immunofluorescence staining for viral proteins. For fixation and permeabilization the cells were incubated with 80% acetone for 5 min. For HCMV infected cells the immediate early proteins pUL122/123 were detected with a mouse monoclonal (clone E13, Argene) and visualized using a Cy3 conjugated goat anti-mouse secondary antibody (Jackson Immuno Research). HSV infected cultures were stained 6 h post infection for ICP0 using a mouse monoclonal (clone 11060, Santa Cruz) and goat anti-mouse AF488 (life technologies). DAPI was used to locate nuclei. Infection rates were determined by counting the number of cell nuclei positive for the respective viral protein, as well as the total number of nuclei per image. For each condition three images were evaluated.

In the case of “PDGFR-alpha-Fc: recombinant Fc-fusion protein of the PDGFR-alpha extracellular domain, obtained from R&D (6765-PR-050)”, in assay [1], the “effect on penetration of HECs” value is listed as “affected only in fibroblasts” and the “reduction of adsorption on HECs” value turned out to be 75%. In the assay with HCMV, the “EC50 of binding to and neutralizing cell-free HCMV particles” value lay within 0.01 to 0.05 mg/L; the “attachment to and fusion with cells of treated particles” value was “reduced attachment to and reduced fusion with cells”; the “effect when applied post-attachment” value is “effective”. Moreover, the “infectivity of already adsorbed viruses (reduced to)” value in the assay on HCMV TB40E (200 ng/ml added post adsorption, HFFs) was determined as 50%. Besides, the “post adsorption inhibition after addition of PEG” value with HCMV TB40E (200 ng/ml, 50% PEG 30 sec) is on record as “completely rescued”. Also, in the assay with UL74stop virus, the “infectivity of the UL74stop virus with increasing doses” value is on record as “did not significantly change”. In the assay with HSV-1 strain F, the “effect on HSV infection” value is on record as “not affected”.
